Our source for the Kd values is ChEMBL document CHEMBL5729293, “Inhibitors of KEAP1-Nrf2 protein-protein interaction” (2022).

The structures appear in SMILES notation.

The nature of this experiment: Fluorescence Based Assay: The details of the KEAP1 KELCH ThermoFluor® Assay Construct are as follows: Kelch domain of human KEAP 1 (321-624 aa) was used in the assay. The protein was expressed in E. coli with 6His tag that was cleaved prior to receipt for use.ThermoFluor® experiments were carried out using instruments owned by Janssen Research and Discovery, L.L.C. through its acquisition of 3-Dimensional Pharmaceuticals, Inc. 1,8-ANS (Invitrogen) was used as a fluorescent dye. Protein (KEAP Kelch) and compound solutions were dispensed into black 384-well polypropylene PCR microplates (Abgene) and overlayed with silicone oil (1 μL, Fluka, type DC 200) to prevent evaporation.Reference wells contained KEAP Kelch without compounds, and the assay conditions were as follows: 1.1 μM (0.037mg/mL) KEAP Kelch, 80 μM 1,8-ANS, 25 mM PIPES, pH 7.0, 100 mM NaCl, 0.002% Tween-20. Background: DSF heats the sample and reads unfolding from a dye or from intrinsic fluorescence.
Consider `CC[C@@H]1CN(Cc2cc(C(CC(=O)O)c3ccn4c(C(F)(F)F)nnc4c3)ccc2C)S(=O)(=O)c2cccnc2O1` (stereo not given in full), for which the Kd is less than 1 nM.

`Cc1ccc([C@H](CC(=O)O)c2ccc3c(nnn3C3CC3)c2C)cc1CN1C[C@@H]2CCCCN2c2ncccc2S1(=O)=O` gave a Kd of less than 1 nM.

In the case of `Cc1ccc([C@@H](CC(=O)O)c2ccn3c(C(F)(F)F)nnc3c2C)cc1CN1CC2(COC2)Oc2ccccc2S1(=O)=O`, the Kd is less than 1 nM.

Molecule `Cc1ccc([C@H](c2ccn3c(C(F)(F)F)nnc3c2C)C(C)(C)C(=O)O)cc1CN1CC2(CC2)Oc2nc(N[C@@H](C)CN3CCCCC3)c(C)cc2S1(=O)=O` gave a Kd of less than 1 nM.

On to `Cc1ccc(C(c2ccn3c(C(F)(F)F)nnc3c2C)C(C)C(=O)O)cc1CN1C[C@@H]2CCCCN2c2ncccc2S1(=O)=O` (stereo not given in full), for which the Kd was less than 1 nM.

In turn, `Cc1cnc2c(c1)S(=O)(=O)N(Cc1cc([C@@H](c3ccn4c(C(F)F)nnc4c3C)C(C)(C)C(=O)O)ccc1C)CC1(CC1)O2` came in with a Kd of less than 1 nM.

Turning to `Cc1ccc([C@@H](c2ccn3c(C(F)F)nnc3c2C)C(C)(C)C(=O)O)cc1CN1CC2(CCOCC2)Oc2nc(OCCN3CCCCC3)c(C)cc2S1(=O)=O`, the Kd is less than 1 nM.

`Cc1ccc([C@@H](c2ccn3c(C(F)(F)F)nnc3c2C)C(C)(C)C(=O)O)cc1CN1CC2(CCOCC2)Oc2nc(CCC(=O)NC3CCC3)ccc2S1(=O)=O`: the Kd is less than 1 nM.

Regarding `Cc1ccc([C@H](CC(=O)O)c2ccc3c(nnn3CC3CC3)c2C)cc1CN1C[C@@H]2CCCCN2c2ncccc2S1(=O)=O`, the Kd is less than 1 nM.

`Cc1ccc([C@H](CC(=O)O)c2ccn3c(C(F)(F)F)nnc3c2C)cc1CN1CC2(CC2)Oc2ncc(Cl)cc2S1(=O)=O` yielded a Kd of less than 1 nM.

`CC[C@@H]1CN(Cc2cc([C@H](CC(=O)O)c3ccn4c(C(F)(F)F)nnc4c3C)ccc2C)S(=O)(=O)c2cccnc2O1` yielded a Kd of less than 1 nM.

Molecule `CCn1nnc2c(C)c([C@@H](CC(=O)O)c3ccc(C)c(CN4C[C@H]5CCCCN5c5ncccc5S4(=O)=O)n3)ccc21` had a Kd of less than 1 nM.

`Cc1ccc([C@@H](CC(=O)O)c2ccn3c(C(F)F)nnc3c2C)cc1CN1C[C@@H]2CCCCN2c2ncc(C#N)cc2S1(=O)=O` registered a Kd of less than 1 nM.

In turn, `Cc1cnc([C@@H](c2ccn3c(C(F)(F)F)nnc3c2C)C(C)(C)C(=O)O)cc1CN1CC2(CC2)Oc2nc(OCCN3CCCC3)c(C)cc2S1(=O)=O` showed a Kd of less than 1 nM.

For the molecule `CCn1nnc2c(C)c([C@@H](c3cnc(C)c(CN4CC5(CCOCC5)Oc5ncc(C)cc5S4(=O)=O)c3)C(C)(C)C(=O)O)ccc21`, the Kd was less than 1 nM.

The molecule `Cc1ccc([C@@H](c2cc(C)n3c(C(F)(F)F)nnc3c2C)C(C)C(=O)O)cc1CN1C[C@@H]2CCCCN2c2ncccc2S1(=O)=O` (stereo not given in full) showed a Kd of less than 1 nM.

Consider `Cc1ccc(C(CC(=O)O)c2ccn3c(C(F)F)nnc3c2C)cc1CN1CC2(COC2)Oc2ncccc2S1(=O)=O` (stereo not given), for which the Kd was less than 1 nM.

The molecule `Cc1ccc(C(CC(=O)O)c2ccn3c(C(F)(F)F)nnc3c2C)cc1CN1C[C@H]2CCCN2c2ncccc2S1(=O)=O` (stereo not given in full) came in with a Kd of less than 1 nM.

`Cc1ccc([C@@H](c2ccn3c(C4CC4)nnc3c2C)C(C)(C)C(=O)O)cc1CN1CC2(COC2)Oc2ncccc2S1(=O)=O` returned a Kd of less than 1 nM.

The molecule `Cc1ccc(C(CC(=O)O)c2ccn3c(C(F)(F)F)nnc3c2)cc1CN1C[C@@H]2CCCN2c2ncccc2S1(=O)=O` (stereo not given in full) returned a Kd of less than 1 nM.

Turning to `CCn1nnc2c(C)c(C(CC(=O)O)c3ccc(C)c(CN4C[C@H]5CCCN5c5ncccc5S4(=O)=O)n3)ccc21` (stereo not given in full), the Kd is less than 1 nM.

For `Cc1ccc(C(CC(=O)O)c2ccn3c(C(F)F)nnc3c2C)cc1CN1CC2(CC2)Oc2ncccc2S1(=O)=O` (stereo not given), the Kd is less than 1 nM.

In turn, `Cc1ccc([C@@H](c2ccn3c(C(F)(F)F)nnc3c2C)C(C)(C)C(=O)O)cc1CN1CC2(CCOCC2)Oc2nc(N[C@@H](C)CCO)ccc2S1(=O)=O` yielded a Kd of less than 1 nM.

For `Cc1ccc([C@@H](c2ccn3c(C(F)(F)F)nnc3c2C)C(C)(C)C(=O)O)cc1CN1C[C@@H]2CCCCN2c2ncc(C#N)cc2S1(=O)=O`, the Kd was less than 1 nM.

`Cc1cnc2c(c1)S(=O)(=O)N(Cc1cc([C@H](c3ccn4c(C(F)(F)F)nnc4c3C)C(C)(C)C(=O)O)cnc1C)CC1(CC1)O2` registered a Kd of less than 1 nM.

In the case of `Cc1ccc([C@H](CC(=O)O)c2ccn3c(C(F)(F)F)nnc3c2C)cc1CN1CC2CCCCN2c2ncc(C#N)cc2S1(=O)=O` (stereo not given in full), the Kd is less than 1 nM.

With `Cc1ccc([C@@H](c2ccn3c(C(F)(F)F)nnc3c2C)C(C)(C)C(=O)O)cc1CN1CC2(CC2)Oc2nc(OCCN3CCC3)c(C)cc2S1(=O)=O`, the Kd was less than 1 nM.

As for `Cc1ccc([C@H](CC(=O)O)c2ccc3c(nnn3CC3CC3)c2C)cc1CN1C[C@H]2CCCCN2c2ncccc2S1(=O)=O`, the Kd is less than 1 nM.

The molecule `Cc1ccc([C@H](CC(=O)O)c2ccn3c(C(F)F)nnc3c2C)cc1CN1CC2(COC2)Oc2ccccc2S1(=O)=O` yielded a Kd of less than 1 nM.

Take `Cc1ccc([C@H](CC(=O)O)c2ccn3c(C(F)F)nnc3c2C)cc1CN1C[C@]2(C)CCCN2c2ncccc2S1(=O)=O`: the Kd is less than 1 nM.

`Cc1ccc([C@H](CC(=O)O)c2ccn3c(C(F)(F)F)nnc3c2C)cc1CN1C[C@@H]2CCN2c2ncccc2S1(=O)=O`: the Kd is less than 1 nM.

As to `Cc1ccc(C(CC(=O)O)c2ccc3c(nnn3C3CC3)c2C)cc1CN1C[C@@H]2CCCCN2c2ccccc2S1(=O)=O` (stereo not given in full), the Kd is less than 1 nM.

In turn, `Cc1ccc([C@@H](c2ccn3c(C(F)(F)F)nnc3c2C)C(C)(C)C(=O)O)cc1CN1CC2(CCOCC2)Oc2nc(OCCCO)ccc2S1(=O)=O` came in with a Kd of less than 1 nM.

The molecule `Cc1ccc([C@@H](CC(=O)O)c2ccn3c(C(F)(F)F)nnc3c2C)nc1CN1C[C@H]2CCCCN2c2ncc(C#N)cc2S1(=O)=O` showed a Kd of less than 1 nM.

`CCc1nnc2c(C)c([C@@H](CC(=O)O)c3ccc(C)c(CN4C[C@H]5CCCN5c5ncccc5S4(=O)=O)c3)ccn12` registered a Kd of less than 1 nM.

The molecule `Cc1ccc([C@H](CC(=O)O)c2ccc3c(nnn3C3CC3)c2C)cc1CN1C[C@H]2CCCN2c2ncccc2S1(=O)=O` registered a Kd of less than 1 nM.

`Cc1ccc([C@H](CC(=O)O)c2ccn3c(C(F)(F)F)nnc3c2C)nc1CN1C[C@H]2CCCCN2c2ncc(C#N)cc2S1(=O)=O` yielded a Kd of less than 1 nM.

The molecule `CCn1nnc2c(C)c([C@H](c3ccc(C)c(CN4CC5(CCOCC5)Oc5ncccc5S4(=O)=O)n3)C(C)(C)C(=O)O)ccc21` had a Kd of less than 1 nM.

As to `Cc1ccc([C@@H](CC(=O)O)c2ccc3c(nnn3CC3CC3)c2C(F)F)cc1CN1C[C@H]2CCCCN2c2ncccc2S1(=O)=O` (single isomer, unassigned), the Kd was less than 1 nM.

`Cc1ccc([C@@H](c2ccc3c(nnn3CC3CC3)c2C)C(C)(C)C(=O)O)cc1CN1CC2(CCOCC2)Oc2ncccc2S1(=O)=O`: the Kd is less than 1 nM.

Molecule `Cc1ccc([C@H](CC(=O)O)c2ccn3c(C(F)F)nnc3c2C)cc1CN1CC2(COC2)Oc2ncccc2S1(=O)=O` returned a Kd of less than 1 nM.

`Cc1ccc([C@@H](c2ccn3c(C(F)(F)F)nnc3c2C)C(C)(C)C(=O)O)cc1CN1C[C@@]2(CCOC2)Oc2ncccc2S1(=O)=O` yielded a Kd of less than 1 nM.

`Cc1ccc([C@H](CC(=O)O)c2ccn3c(C)nnc3c2)cc1CN1C[C@H]2CCCN2c2ccccc2S1(=O)=O` displayed a Kd of less than 1 nM.

On to `Cc1ccc(C(CC(=O)O)c2ccc3c(nnn3C3CC3)c2C)cc1CN1C[C@H]2CCCN2c2ncccc2S1(=O)=O` (stereo not given in full), for which the Kd is less than 1 nM.

In the case of `Cc1ccc([C@@H](c2ccn3c(C(F)(F)F)nnc3c2C)C(C)(C)C(=O)O)cc1CN1CC2(CCOCC2)Oc2ncccc2S1(=O)=O`, the Kd is less than 1 nM.

What is called Kd is the constant that tells how readily two partners part at equilibrium.
